SMILES | melting point [°C]
CS(=O)(=O)N(c1ccccc1)C1CCN(Cc2ccccc2)CC1 | 125
CC1(C)COC(CCc2ccc(NC=NO)cc2)OC1 | 159 to 160
CCCCCCCCCCCCCCCc1cc2c(C(=O)O)cccc2[nH]1 | 114 to 117
O=C(Nc1nc(-c2ccco2)c(-c2ccncc2)s1)c1cc[nH]c(=O)c1 | 277 to 281
c1cnc2c(c1)N(c1ccc3[nH]cc(C4CCNCC4)c3c1)CN2 | 260 to 268
CC(NC(=O)Cc1cc(F)cc(F)c1)C(=O)C1(N)N=C(c2ccccc2)c2cc(Cl)ccc2N(C)C1=O (configuration not stated) | 126 to 130
COc1ccc(CCNC(=S)Cc2nnnn2C)cc1OC | 90 to 92
OCCCN1CCC(c2noc3cc(F)ccc23)CC1 | 140 to 142
O=C(NC1N=C(c2ccccc2F)c2ccccc2-n2cnnc21)c1cc2ccccc2[nH]1 (configuration not stated) | 291
Cc1c(-c2ccccc2)n(Cc2ccccc2)c2ccc(Br)cc12 | 113 to 116
O=C(c1ccc2cc(Cl)ccc2c1)C1CCNCC1 | 98 to 100
O=S(=O)(NC1CC1)c1cccc(-c2cc(-c3nc(-c4ccc(C(F)(F)F)cc4)cc(C(F)(F)F)n3)ccn2)c1 | 196
CCOC(=O)C1CCC2(c3cc(OC)c(OC)cc3CCN2C(=O)CCN(C)C)C(C2c3cc(OC)c(OC)cc3CCN2CC)C1 (configuration not stated) | 154 to 156
N#Cc1cccc(-c2ccc3cc[nH]c(=O)c3c2)c1 | > 300
N#CC1CC2CC2N1C(=O)C(N)C12CC3CC(CC(O)(C3)C1)C2 (configuration not stated) | 105 to 108
COc1cc2c3cc(OC)c(OC)cc3n(S(=O)(=O)c3ccccc3)c2cc1OC | 212 to 213
Cc1ccc(NCc2ccc(C(=O)Nc3ccccc3N)cc2)cc1Nc1nccc(-c2cccnc2)n1 | 112 to 120
C=CCOC1CC2C3CCC4=CC(=O)CCC4(C)C3(F)C(O)CC2(C)C1(O)C(=O)CO (configuration not stated) | 189 to 191
CC(C)(C)Nc1nc(N)nc2c1ncn2C1C=CC(CO)C1 (configuration not stated) | 161 to 163
COc1cc2c(cc1Nc1ncc(Cl)c(N[C@H]3[C@@H](C(N)=O)[C@@H]4C=C[C@H]3C4)n1)CCN(CC(=O)N1CCOCC1)CC2 | 163

Next, values leading:

melting point [°C] | SMILES
125 to 126 | C=C1c2ccccc2C(n2cncc2C(=O)OC)C1(C)C (configuration not stated)
205 to 210 | CCc1ccc2c(c1)C=Cc1oc(C)nc1C2c1cn(-c2ccnc(NCC(=O)Nc3nc(CC(=O)O)cs3)n2)c(=O)[nH]c1=O (configuration not stated)
135 to 138 | Cc1nn(CC(F)(F)F)c(C(=O)O)c1[N+](=O)[O-]
90 to 91 | COc1ccc(CN2C(=O)CC2CC(=O)O)c(OC)c1 (configuration not stated)
153 to 156 | CC(C)CCc1c(-c2ccc(S(N)(=O)=O)c(F)c2)cnn(CC(F)(F)F)c1=O
166 to 169 | O=C(O)COc1cccc2c1Cc1sc(SCc3ccccc3)nc1-2
100 to 104 | CC(C(=O)O)N(C(=O)OC(C)(C)C)c1ccc([N+](=O)[O-])cc1 (configuration not stated)
122 to 127 | Cn1c(CC#N)ccc1C(=O)c1cccc(Cl)c1
229 to 230 | C=CC[C@H]1CC(C(=O)O)=C[C@@H](OC(CC)CC)[C@@H]1NC(C)=O
195 to 196 | COCc1noc(-c2ncn3c2c(=O)n(C(C)C)c2ccccc23)n1
116 | C=C(C)C(=O)Oc1ccc2c(c1)CCc1cc(OC(=O)C(=C)C)ccc1-2
75 to 77 | CS(=O)(=O)OC1Cc2ccccc2C1
176 to 190 | CCCCC(CC(=O)Nc1cc(C(N)=O)ccc1C(C)(C)C)c1cc(Cl)c(OCCCOC)cc1OC (configuration not stated)
70 to 72 | CCOC(=O)C1CCc2c(c3ccccc3n2C(=O)c2ccc(C)cc2)C1 (configuration not stated)
103 to 106 | CC(C)(C)OC(=O)Nc1ccc(Cl)c(O)c1
113 to 114 | CC(C)(C)c1ccc(CN2C(=O)N(c3ccccc3)CSC2=NCC(F)(F)F)cc1
125 | CCC(C)N(C)C(=O)c1cc(-c2ccccc2)cc2ccccc12 (configuration not stated)

Reference: a melting point compilation (Tetko et al.; mined from patent text by program, amines drawn as free bases though some values may be those of a salt)
